Test results from ChEMBL document CHEMBL3885881, “DrugMatrix”.

Species: Rattus norvegicus
Experiment: DrugMatrix - Regimen: Daily Repeat
Assay type: toxicity, organism-based, Sprague-Dawley
Set-up: regimen Daily Repeat, gender Male, age 6-8 weeks
Settings: in vivo, iv, 20 mg/kg, dose level Low, vehicle 100 % SALINE; for ABSOLUTE BASOPHIL / ABSOLUTE EOSINOPHIL / ABSOLUTE LYMPHOCYTE / ABSOLUTE MONOCYTE / ABSOLUTE SEGMENTED NEUTROPHIL / BASOPHIL / EOSINOPHIL / ERYTHROCYTE COUNT / HEMATOCRIT / HEMOGLOBIN / LEUKOCYTE COUNT / LYMPHOCYTE / MEAN CORPUSCULAR HEMOGLOBIN / MONOCYTE / NEUTROPHIL / NUCLEATED RED BLOOD CELLS / PLATELET COUNT: tissue Blood; for ALANINE AMINOTRANSFERASE / ALBUMIN / ALKALINE PHOSPHATASE / ASPARTATE AMINOTRANSFERASE / BLOOD UREA NITROGEN / CARBON DIOXIDE / CHLORIDE / CHOLESTEROL / CREATINE PHOSPHOKINASE / CREATININE / GLUCOSE / LACTATE DEHYDROGENASE / LIPASE / PHOSPHORUS / POTASSIUM / SODIUM / TOTAL BILIRUBIN / TOTAL PROTEIN / URIC ACID: tissue Plasma

## CCC[C@@H]1C[C@@H](C(=O)N[C@@H]([C@H]2O[C@H](SC)[C@H](O)[C@@H](O)[C@H]2O)[C@H](C)Cl)N(C)C1 [CLINDAMYCIN]
72 h, time 3 day
  ABSOLUTE BASOPHIL: 0 CELLS/uL
  ABSOLUTE EOSINOPHIL: 40 CELLS/uL
  ABSOLUTE LYMPHOCYTE: 9607.67 CELLS/uL
  ABSOLUTE MONOCYTE: 40 CELLS/uL
  ABSOLUTE SEGMENTED NEUTROPHIL: 712.33 CELLS/uL
  BASOPHIL: 0%
  EOSINOPHIL: 0.33%
  ERYTHROCYTE COUNT: 5.49 x10E6/uL
  HEMATOCRIT: 34.93%
  HEMOGLOBIN: 13.7 G/DL
  LEUKOCYTE COUNT: 10.4 x10E3/uL
  LYMPHOCYTE: 92.67%
  MEAN CORPUSCULAR HEMOGLOBIN: 24.97 pg
  MONOCYTE: 0.33%
  NEUTROPHIL: 6.67%
  NUCLEATED RED BLOOD CELLS: 0 /100WBC
  PLATELET COUNT: 1194.33 x10E3/uL
  ALANINE AMINOTRANSFERASE: 42 u/L
  ALBUMIN: 4.4 G/DL
  ALKALINE PHOSPHATASE: 375.67 u/L
  ASPARTATE AMINOTRANSFERASE: 82.67 u/L
  BLOOD UREA NITROGEN: 19 mg/dL
  CARBON DIOXIDE: 35.33 mmol/L
  CHLORIDE: 97 MEQ/L
  CHOLESTEROL: 81.33 mg/dL
  CREATINE PHOSPHOKINASE: 250 u/L
  CREATININE: 0.19 mg/dL
  GLUCOSE: 124.33 mg/dL
  LACTATE DEHYDROGENASE: 260.67 u/L
  LIPASE: 11 u/L
  PHOSPHORUS: 9.63 mg/dL
  POTASSIUM: 6.58 MEQ/L
  SODIUM: 143.4 MEQ/L
  TOTAL BILIRUBIN: 0.17 mg/dL
  TOTAL PROTEIN: 6.4 G/DL
  URIC ACID: 0.87 mg/dL
120 h, time 5 day
  ABSOLUTE BASOPHIL: 0 CELLS/uL
  ABSOLUTE EOSINOPHIL: 97.33 CELLS/uL
  ABSOLUTE LYMPHOCYTE: 13386.67 CELLS/uL
  ABSOLUTE MONOCYTE: 100.67 CELLS/uL
  ABSOLUTE SEGMENTED NEUTROPHIL: 1348.67 CELLS/uL
  BASOPHIL: 0%
  EOSINOPHIL: 0.67%
  ERYTHROCYTE COUNT: 5.84 x10E6/uL
  HEMATOCRIT: 35.8%
  HEMOGLOBIN: 14.27 G/DL
  LEUKOCYTE COUNT: 14.93 x10E3/uL
  LYMPHOCYTE: 89.67%
  MEAN CORPUSCULAR HEMOGLOBIN: 24.47 pg
  MONOCYTE: 0.67%
  NEUTROPHIL: 9%
  NUCLEATED RED BLOOD CELLS: 0 /100WBC
  PLATELET COUNT: 1266.67 x10E3/uL
  ALANINE AMINOTRANSFERASE: 57.67 u/L
  ALBUMIN: 4.33 G/DL
  ALKALINE PHOSPHATASE: 400.67 u/L
  ASPARTATE AMINOTRANSFERASE: 85 u/L
  BLOOD UREA NITROGEN: 18.67 mg/dL
  CARBON DIOXIDE: 35.33 mmol/L
  CHLORIDE: 100.33 MEQ/L
  CHOLESTEROL: 70.67 mg/dL
  CREATINE PHOSPHOKINASE: 217 u/L
  CREATININE: 0.19 mg/dL
  GLUCOSE: 148.33 mg/dL
  LACTATE DEHYDROGENASE: 152.67 u/L
  LIPASE: 8.33 u/L
  PHOSPHORUS: 12.6 mg/dL
  POTASSIUM: 7.37 MEQ/L
  SODIUM: 144.4 MEQ/L
  TOTAL BILIRUBIN: 0.2 mg/dL
  TOTAL PROTEIN: 6.43 G/DL
  URIC ACID: 1.67 mg/dL
